Literature values as cited in patent publication US9061052B2, “Aqueous extract of tobacco leaves, its uses in the treatment of dependence” (NFL BIOSCIENCE, priority 2006, dated 2015).

Test system: tobacco dependence
Conditions: in vivo

For CC(NC(C)(C)C)C(=O)c1cccc(Cl)c1 (stereo not shown) [Zyban, bupropion], the Adverse effects is given as “dry mouth sensation, insomnia and dizziness”.
